Results on 13 molecules are retold here after patent US9924716B2, “Molecules having pesticidal utility, and intermediates, compositions, and processes, related thereto” (Dow AgroSciences LLC, priority 2016, dated 2018).

Assay type in all cases: in vivo
Assay [1] concerns Cabbage Looper (Trichoplusia ni, TRIPNI) second instar larvae. Nature of the assay: Bioassay on Cabbage Looper (CL), 128-well diet tray assay. Conditions: for pest or weed control at 50 µg/cm2: Cabbage Looper, Table ABC Biological Results, read-out: CL rating; for mortality at 0.05 µg/cm2: 0.05 μg/cm^2 on artificial diet; for mortality at 0.05 µg/cm2 / mortality at 0.5 µg/cm2 / mortality at 5 µg/cm2: read-out: Percent control (or mortality) CL; for mortality at 0.5 µg/cm2: 0.5 μg/cm^2 on artificial diet; for mortality at 5 µg/cm2: 5 μg/cm^2 on artificial diet. How it is done:
(§1) Certain molecules disclosed in this document were tested against BAW, CEW, and CL using procedures described in the following examples. In the reporting of the results, the “BAW, CEW, & CL Rating Table” was used (See Table Section).
Bioassays on CL were conducted using a 128-well diet tray assay. one to five second instar CL larvae were placed in each well (3 mL) of the diet tray that had been previously filled with 1 mL of artificial diet to which 50 μg/cm^2 of the test molecule (dissolved in 50 μL of 90:10 acetone-water mixture) had been applied (to each of eight wells) and then allowed to dry. Trays were covered with a clear self-adhesive cover and held at 25° C., 14:10 light-dark for five to seven days. Percent mortality was recorded for the larvae in each well; activity in the eight wells was then averaged. The results are indicated in the table entitled “Table ABC: Biological Results” (See Table Section).
(§2) Bioassays on BAW and CL were conducted according to the procedures outlined in Example A: Bioassays on Beet Armyworm (“BAW”) and Cabbage Looper (“CL”) using the indicated concentrations.

Assay [2] has as its system Beet Armyworm (Spodoptera exigua, LAPHEG) second instar larvae. Description: Bioassay on Beet Armyworm (BAW), 128-well diet tray assay. Conditions: for pest or weed control at 50 µg/cm2: Beet Armyworm, Table ABC Biological Results, read-out: BAW rating; for mortality at 0.05 µg/cm2: 0.05 μg/cm^2 on artificial diet; for mortality at 0.05 µg/cm2 / mortality at 0.5 µg/cm2 / mortality at 5 µg/cm2: read-out: Percent control (or mortality) BAW; for mortality at 0.5 µg/cm2: 0.5 μg/cm^2 on artificial diet; for mortality at 5 µg/cm2: 5 μg/cm^2 on artificial diet. As for the experimental part: as §1
Bioassays on BAW were conducted using a 128-well diet tray assay. one to five second instar BAW larvae were placed in each well (3 mL) of the diet tray that had been previously filled with 1 mL of artificial diet to which 50 μg/cm^2 of the test molecule (dissolved in 50 μL of 90:10 acetone-water mixture) had been applied (to each of eight wells) and then allowed to dry. Trays were covered with a clear self-adhesive cover and held at 25° C., 14:10 light-dark for five to seven days. Percent mortality was recorded for the larvae in each well; activity in the eight wells was then averaged. The results are indicated in the table entitled “Table ABC: Biological Results” (See Table Section).
as §2

Assay [3] concerns Yellow Fever Mosquito (Aedes aegypti, AEDSAE) larvae. Nature of the assay: Bioassay on Yellow Fever Mosquito (YFM), 96-well plate larval assay. The settings on record: Table ABC Biological Results. As for the experimental part: Certain molecules disclosed in this document were tested against YFM using procedures described in the following paragraph. In the reporting of the results, the “GPA & YFM Rating Table” was used (See Table Section).
Master plates containing 400 μg of a molecule dissolved in 100 μL of dimethyl sulfoxide (DMSO) (equivalent to a 4000 ppm solution) are used. A master plate of assembled molecules contains 15 μL per well. To this plate, 135 μL of a 90:10 water:acetone mixture is added to each well. A robot (Biomek® NXP Laboratory Automation Workstation) is programmed to dispense 15 μL aspirations from the master plate into an empty 96-well shallow plate (“daughter” plate). There are 6 reps (“daughter” plates) created per master. The created daughter plates are then immediately infested with YFM larvae.
The day before plates are to be treated, mosquito eggs are placed in Millipore water containing liver powder to begin hatching (4 g. into 400 mL). After the daughter plates are created using the robot, they are infested with 220 μL of the liver powder/larval mosquito mixture (about 1 day-old larvae). After plates are infested with mosquito larvae, a non-evaporative lid is used to cover the plate to reduce drying. Plates are held at room temperature for 3 days prior to grading. After 3 days, each well is observed and scored based on mortality. The results are indicated in the table entitled “Table ABC: Biological Results” (See Table Section).

SMILES strings stand for the structures.

For `C[C@H](NC(=O)CCC(F)(F)F)NC(=O)c1ccc(/C(F)=C/C(c2cc(Br)c(Cl)c(Br)c2)C(F)(F)F)cc1C(F)(F)F` (stereo partly drawn) [F30, 4-((Z)-3-(3,5-Dibromo-4-chlorophenyl)-1,4,4,4-tetrafluorobut-1-en-1-yl)-N—((R)-1-(4,4,4-trifluorobutanamido)ethyl)-2-(trifluoromethyl)benzamide], the pest or weed control at 50 µg/cm2 in assay [1] and in assay [2] was 50 to 100% throughout. For the same molecule, the YFM rating entry in assay [3] is “A (80-100)”.

Consider `C[C@H](NC(=O)CC(F)(F)F)NC(=O)c1ccc(/C(F)=C/C(c2cc(Cl)cc(Br)c2)C(F)(F)F)cc1C(F)(F)F` (stereo partly drawn) [F36, 4-((Z)-3-(3-Bromo-5-chlorophenyl)-1,4,4,4-tetrafluorobut-1-en-1-yl)-2-(trifluoromethyl)-N—((R)-1-(3,3,3-trifluoropropanamido)ethyl)benzamide], for which the pest or weed control at 50 µg/cm2 in assay [1] and in assay [2] was 50 to 100% each time. Further, in assay [3], the YFM rating entry was “A (80-100)”.

With `C[C@H](NC(=O)CC(F)(F)F)NC(=O)c1ccc(/C(F)=C/C(c2ccc(Cl)c(F)c2)C(F)(F)F)cc1C(F)(F)F` (stereo partly drawn) [PF2, 4-((Z)-3-(4-Chloro-3-fluorophenyl)-1,4,4,4-tetrafluorobut-1-en-1-yl)-2-(trifluoromethyl)-N—((R)-1-(3,3,3-trifluoropropanamido)ethyl)benzamide], the pest or weed control at 50 µg/cm2 in assay [1] and in assay [2] was 50 to 100% in each case. In assay [3], the YFM rating result is listed as “A (80-100)”.

Regarding `C=Cc1c(Cl)cc(C(/C=C(\F)c2ccc(C(=O)N[C@H](C)NC(=O)CC(F)(F)F)c(C(F)(F)F)c2)C(F)(F)F)cc1Cl` (stereo partly drawn) [F18, 4-((Z)-3-(3,5-Dichloro-4-vinylphenyl)-1,4,4,4-tetrafluorobut-en-1-yl)-2-(trifluoromethyl)-N—((R)-1-(3,3,3-trifluoropropanamido)ethyl)benzamide], the pest or weed control at 50 µg/cm2 in assay [1] and in assay [2] was 50 to 100% each time. Besides, the YFM rating entry in assay [3] is “A (80-100)”.

`C[C@H](NC(=O)CCC(F)(F)F)NC(=O)c1ccc(/C(F)=C/C(c2cc(Cl)c(Cl)c(Cl)c2)C(F)(F)F)cc1Cl` (stereo partly drawn) [F9, 2-Chloro-4-((Z)-1,4,4,4-tetrafluoro-3-(3,4,5-trichlorophenyl)but-1-en-1-yl)-N—((R)-1-(4,4,4-trifluorobutanamido)ethyl)benzamide]: in assay [1], the mortality (commonly the percentage killed) at 0.05 µg/cm2 came out at 100%, the mortality at 0.5 µg/cm2 is 100%, the mortality at 5 µg/cm2 was 100% and the pest or weed control at 50 µg/cm2 lay in the range of 50 to 100%. Further, in assay [2], the mortality at 0.05 µg/cm2 was 100%, the mortality at 0.5 µg/cm2 amounted to 100%, the mortality at 5 µg/cm2 came out at 100% and the pest or weed control at 50 µg/cm2 lay within 50 to 100%.

For the molecule `C[C@H](NC(=O)CC(F)(F)F)NC(=O)c1ccc(/C(F)=C/C(c2ccc(Cl)c(Cl)c2)C(C)(F)F)cc1C(F)(F)F` (stereo partly drawn) [F39, 4-((Z)-3-(3,4-Dichlorophenyl)-1,4,4-trifluoropent-1-en-1-yl)-2-(trifluoromethyl)-N—((R)-1-(3,3,3-trifluoropropanamido)ethyl)benzamide], the pest or weed control at 50 µg/cm2 in assay [1] and in assay [2] was 50 to 100% each time.

With `C[C@@H](NC(=O)c1ccc(/C(F)=C/C(c2cc(Cl)c(Cl)c(Cl)c2)C(F)(F)F)cc1C(F)(F)F)NC(=O)C1(C#N)CC1` (stereo partly drawn) [PF31, N—((S)-1-(1-Cyanocyclopropane-1-carboxamido)ethyl)-4-((Z)-1,4,4,4-tetrafluoro-3-(3,4,5-trichlorophenyl)but-1-en-1-yl)-2-(trifluoromethyl)benzamide], the pest or weed control at 50 µg/cm2 in assay [1] and in assay [2] was 50 to 100% throughout.

In the case of `C[C@H](NC(=O)CC(F)(F)F)NC(=O)c1ccc(/C(F)=C/C(c2cc(Cl)c(Cl)c(Cl)c2)C(F)(F)F)cc1C(F)(F)F` (stereo partly drawn) [F5, 4-((Z)-1,4,4,4-Tetrafluoro-3-(3,4,5-trichlorophenyl)but-1-en-1-yl)-2-(trifluoromethyl)-N—((R)-1-(3,3,3-trifluoropropanamido)ethyl)benzamide], in assay [1], the mortality at 0.05 µg/cm2 came to 100%, the mortality at 0.5 µg/cm2 came to 100%, the mortality at 5 µg/cm2 came out at 100% and the pest or weed control at 50 µg/cm2 lay in the range of 50 to 100%. In addition, in assay [2], the mortality at 0.05 µg/cm2 came to 100%, the mortality at 0.5 µg/cm2 is 100%, the mortality at 5 µg/cm2 worked out at 100% and the pest or weed control at 50 µg/cm2 lay within 50 to 100%.

In the case of `CCC(F)(F)C(/C=C(\F)c1ccc(C(=O)N[C@H](C)NC(=O)CC(F)(F)F)c(C(F)(F)F)c1)c1cc(Cl)c(Cl)c(Cl)c1` (stereo partly drawn) [F20, 4-((Z)-1,4,4-Trifluoro-3-(3,4,5-trichlorophenyl)hex-1-en-1-yl)-2-(trifluoromethyl)-N—((R)-1-(3,3,3-trifluoropropanamido)ethyl)benzamide], the pest or weed control at 50 µg/cm2 in assay [1] and in assay [2] was 50 to 100% in each case.

Take `C[C@H](NC(=O)CCC(F)(F)F)NC(=O)c1ccc(/C(F)=C/C(c2cc(Cl)c(Cl)c(Cl)c2)C(F)(F)F)cc1` (stereo partly drawn) [FC2, 4-((Z)-1,4,4,4-Tetrafluoro-3-(3,4,5-trichlorophenyl)but-1-en-1-yl)-N—((R)-1-(4,4,4-trifluorobutanamido)ethyl)benzamide, reference compound]: in assay [1], the mortality at 0.05 µg/cm2 was 0%, the mortality at 0.5 µg/cm2 was 6% and the mortality at 5 µg/cm2 came out at 100%. For the same molecule, in assay [2], the mortality at 0.05 µg/cm2 came out at 0%, the mortality at 0.5 µg/cm2 came out at 0% and the mortality at 5 µg/cm2 turned out to be 100%.

For the molecule `C[C@H](NC(=O)CC(F)(F)F)NC(=O)c1ccc(/C(F)=C/C(c2cc(Cl)c(Cl)c(Cl)c2)C(F)(F)F)cc1` (stereo partly drawn) [FC1, 4-((Z)-1,4,4,4-Tetrafluoro-3-(3,4,5-trichlorophenyl)but-1-en-1-yl)-N—((R)-1-(3,3,3-trifluoropropanamido)ethyl)benzamide, reference compound], in assay [1], the mortality at 0.05 µg/cm2 came to 0%, the mortality at 0.5 µg/cm2 stood at 0% and the mortality at 5 µg/cm2 turned out to be 100%. Moreover, in assay [2], the mortality at 0.05 µg/cm2 is 0%, the mortality at 0.5 µg/cm2 came out at 0% and the mortality at 5 µg/cm2 was 7%.

For the molecule `C[C@H](NC(=O)CCC(F)(F)F)NC(=O)c1ccc(/C(F)=C/C(c2cc(Cl)c(Cl)c(Cl)c2)C(F)(F)F)cc1C(F)(F)F` (stereo partly drawn) [F1, 4-((Z)-1,4,4,4-tetrafluoro-3-(3,4,5-trichlorophenyl)but-1-en-1-yl)-N—((R)-1-(4,4,4-trifluorobutanamido)ethyl)-2-(trifluoromethyl)benzamide], in assay [1], the mortality at 0.05 µg/cm2 was determined as 100%, the mortality at 0.5 µg/cm2 was 100%, the mortality at 5 µg/cm2 amounted to 100% and the pest or weed control at 50 µg/cm2 is 50 to 100%. Besides, in assay [2], the mortality at 0.05 µg/cm2 was 100%, the mortality at 0.5 µg/cm2 amounted to 100%, the mortality at 5 µg/cm2 turned out to be 100% and the pest or weed control at 50 µg/cm2 lay within 50 to 100%.

`Cc1cc(/C(F)=C/C(c2cc(Cl)c(Cl)c(Cl)c2)C(F)(F)F)ccc1C(=O)N[C@H](C)NC(=O)CC(F)(F)F` (stereo partly drawn) [F33, 2-Methyl-4-((Z)-1,4,4,4-tetrafluoro-3-(3,4,5-trichlorophenyl)but-1-en-1-yl)-N—((R)-1-(3,3,3-trifluoropropanamido)ethyl)benzamide]: in assay [1], the mortality at 0.05 µg/cm2 was 100%, the mortality at 0.5 µg/cm2 was determined as 100%, the mortality at 5 µg/cm2 is 100% and the pest or weed control at 50 µg/cm2 was in the range of 50 to 100%. In addition, in assay [2], the mortality at 0.05 µg/cm2 came out at 88%, the mortality at 0.5 µg/cm2 worked out at 100%, the mortality at 5 µg/cm2 came to 100% and the pest or weed control at 50 µg/cm2 lay in the range of 50 to 100%.
